Results reported in US7135466B2 (Kirin Beer Kabushiki Kaisha, priority 1999, dated 2006).
Where two headings read alike, the source gives them in different places.

How the values were obtained:
c-kit = target: T1, c-kit (Homo sapiens, UniProt P10721); assay: Inhibitory activity against c-kit autophosphorylation (MO7e cells, h-SCF); type: cell-based; settings: for inhibition at 1 µM: Mo7e, at 1000 nM; for IC50: MO7e cells, read-out: c-kit IC50
T1 construct: MO7e (human megakaryocytic leukemia cell line) which had been arrested for 20 hr; endogenous in cells; host or cells: MO7e human megakaryocytic leukemia cell line
T1 sequence (P10721 26-976): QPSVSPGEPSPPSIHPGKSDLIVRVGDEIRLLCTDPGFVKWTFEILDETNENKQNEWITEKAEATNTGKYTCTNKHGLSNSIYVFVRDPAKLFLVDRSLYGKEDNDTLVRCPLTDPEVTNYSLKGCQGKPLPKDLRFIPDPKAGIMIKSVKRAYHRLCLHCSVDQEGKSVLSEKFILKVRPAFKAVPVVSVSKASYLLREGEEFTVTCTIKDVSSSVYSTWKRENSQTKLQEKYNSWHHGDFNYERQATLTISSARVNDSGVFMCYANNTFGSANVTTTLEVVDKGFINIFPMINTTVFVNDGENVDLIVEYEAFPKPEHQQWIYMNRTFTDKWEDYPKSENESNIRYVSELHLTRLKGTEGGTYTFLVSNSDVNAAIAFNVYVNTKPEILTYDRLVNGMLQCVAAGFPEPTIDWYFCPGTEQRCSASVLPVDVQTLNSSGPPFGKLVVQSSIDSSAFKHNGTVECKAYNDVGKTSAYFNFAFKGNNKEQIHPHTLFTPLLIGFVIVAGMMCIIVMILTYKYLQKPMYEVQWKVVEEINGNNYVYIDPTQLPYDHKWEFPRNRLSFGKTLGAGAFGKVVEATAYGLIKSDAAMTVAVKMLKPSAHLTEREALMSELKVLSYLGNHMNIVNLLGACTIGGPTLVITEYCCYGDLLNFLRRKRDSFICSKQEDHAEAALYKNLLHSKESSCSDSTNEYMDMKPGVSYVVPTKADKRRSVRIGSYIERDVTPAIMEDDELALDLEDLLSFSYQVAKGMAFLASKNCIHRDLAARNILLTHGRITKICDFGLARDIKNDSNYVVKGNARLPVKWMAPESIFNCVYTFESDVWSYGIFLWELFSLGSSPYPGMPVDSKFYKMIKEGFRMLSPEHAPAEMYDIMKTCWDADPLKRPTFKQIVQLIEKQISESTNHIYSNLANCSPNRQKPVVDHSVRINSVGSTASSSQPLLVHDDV
Procedure, shortened: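 Phospho-c-kit ELISA: plate-bound PY-20 anti-phosphotyrosine captures lysate, anti-c-kit plus peroxidase-labelled secondary antibody detect, read at 450 nm. Lysates come from 20 hr-arrested MO7e cells given compound for 1 hr before a 5 min 50 ng/ml h-SCF stimulus.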

PDGF-Ra = target: T2, PDGF-Ra (Homo sapiens, UniProt P16234); assay: Inhibitory activity against PDGF-Ra phosphorylation by PDGF-AA stimulation using G292; type: cell-based; settings: for IC50: > means inhibition at indicated concentration not more than 50%, < and << not less than 50%, read-out: PDGF (E) IC50; for inhibition at 0.1 µM: G292, at 100 nM, read-out: PDGF (E) inhibition (%) at 100 nM
T2 construct: host or cells: G-292 human osteosarcoma cells
T2 sequence (P16234 24-1089): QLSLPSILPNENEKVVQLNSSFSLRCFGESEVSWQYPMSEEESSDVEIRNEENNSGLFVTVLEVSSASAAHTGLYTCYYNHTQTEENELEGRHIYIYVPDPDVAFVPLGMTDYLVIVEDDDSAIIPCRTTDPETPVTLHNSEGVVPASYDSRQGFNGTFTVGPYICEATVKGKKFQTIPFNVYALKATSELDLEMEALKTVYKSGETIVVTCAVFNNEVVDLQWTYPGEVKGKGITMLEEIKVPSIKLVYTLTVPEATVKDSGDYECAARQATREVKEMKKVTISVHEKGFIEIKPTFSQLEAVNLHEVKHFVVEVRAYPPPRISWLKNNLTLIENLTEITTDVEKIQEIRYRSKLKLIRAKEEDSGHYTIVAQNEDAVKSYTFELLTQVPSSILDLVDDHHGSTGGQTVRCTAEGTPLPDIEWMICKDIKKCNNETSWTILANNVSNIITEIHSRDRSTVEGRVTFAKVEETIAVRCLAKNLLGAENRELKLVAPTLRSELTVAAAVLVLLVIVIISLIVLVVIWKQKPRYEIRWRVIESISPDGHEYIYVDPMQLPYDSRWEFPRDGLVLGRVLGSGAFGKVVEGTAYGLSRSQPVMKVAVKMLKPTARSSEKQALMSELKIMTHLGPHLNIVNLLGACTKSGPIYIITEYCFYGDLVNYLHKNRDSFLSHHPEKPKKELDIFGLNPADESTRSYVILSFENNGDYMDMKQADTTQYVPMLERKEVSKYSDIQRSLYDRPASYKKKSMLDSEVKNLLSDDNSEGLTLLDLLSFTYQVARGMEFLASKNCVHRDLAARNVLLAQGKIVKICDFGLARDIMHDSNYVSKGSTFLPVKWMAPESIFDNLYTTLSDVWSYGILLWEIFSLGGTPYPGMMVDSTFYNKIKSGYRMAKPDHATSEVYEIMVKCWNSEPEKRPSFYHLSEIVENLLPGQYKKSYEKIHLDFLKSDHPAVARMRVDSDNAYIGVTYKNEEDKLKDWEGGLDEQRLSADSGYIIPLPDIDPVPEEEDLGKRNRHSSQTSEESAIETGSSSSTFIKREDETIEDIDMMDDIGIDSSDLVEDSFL
Procedure, shortened: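 In G-292 osteosarcoma cells kept overnight in 0.1% FBS, compound exposure (1 hr, 37 °C) preceded PDGF-AA stimulation at 50 ng/ml for 5 min; receptor phosphotyrosine was then detected by PY-20 capture ELISA.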

[1] = figure within parentheses in −( ) or >1000( )
[2] = figure within parentheses in >100( )
[3] = figure in parentheses in >100( )

IC50 (PDGF-Ra) [nM] | IC50 (c-kit; h-SCF 50 ng/ml) [nM] | IC50 (PDGF-Ra; Pharmacological Test Example 1) [nM] | IC50 (c-kit; 50 ng/ml h-SCF) [nM] | SMILES | further results
> 100 |  |  |  | COc1cc2nccc(Oc3ccc(NC(=O)NC4CCN(Cc5ccccc5)CC4)c(C)c3C)c2cc1OC [Example 635, N-(1-Benzyl-4-piperidyl)-N′-{4-[(6,7-dimethoxy-4-quinolyl)oxy]-2,3-dimethylphenyl}urea] | inhibition at 1 µM (c-kit; [1]): 23%; inhibition at 0.1 µM (PDGF-Ra; [2]): 25%
95 |  |  |  | COc1cc2nccc(Oc3ccc(NCCCOc4ccccc4C)c(C)c3C)c2cc1OC [Example 890, N-{4-[(6,7-Dimethoxy-4-quinolyl)oxy]-2,3-dimethylphenyl}-N-[3-(2-methylphenoxy)propyl]amine] | inhibition at 1 µM (c-kit; figure in parentheses in −( )): 39%
 | 186 | < 10 |  | COc1cc2nccc(Oc3ccc(NC(=O)OCc4ccc(C(F)(F)F)cc4)c(C)c3C)c2cc1OC [Example 22, 4-(Trifluoromethyl)benzyl N-{4-[(6,7-dimethoxy-4-quinolyl)oxy]-2,3-dimethylphenyl}carbamate] | 
26 |  |  | 401 | COc1cc2nccc(Oc3ccc(NC(=O)OCN4C(=O)c5ccccc5C4=O)c(C)c3C)c2cc1OC [Example 418, (1,3-Dioxo-2,3-dihydro-1H-2-isoindolyl)methyl N-{4-[(6,7-dimethoxy-4-quinolyl)oxy]-2,3-dimethylphenyl}carbamate] | 
 | 185 | < 10 |  | COc1cc2ncnc(Oc3ccc(NC(=O)OCCCSc4ccc(C)cc4)c(Cl)c3)c2cc1OC [Example 41, 3-[(4-Methylphenyl)sulfanyl)propyl N-{2-chloro-4-[(6,7-dimethoxy-4-quinazolinyl)oxy]phenyl}-carbamate] | 
 | 209 | 12 |  | COc1cc2nccc(Oc3ccc(NC(=O)OC(C)c4ccccc4Cl)c(C)c3C)c2cc1OC (centres unmarked) [Example 14, 1-(2-Chlorophenyl)ethyl N-{4-[(6,7-dimethoxy-4-quinolyl)oxy]-2,3-dimethylphenyl}carbamate] | 
< 10 |  |  | 227 | COc1cc2nccc(Oc3ccc(NC(=S)NCc4ccccc4)cc3Cl)c2cc1OC [Example 706, N-Benzyl-N′-{3-chloro-4-[(6,7-dimethoxy-4-quinolyl)oxy]phenyl}thiourea] | 
39 |  |  |  | COc1cc2ncnc(Oc3ccc(NC(=S)NC(=O)C4CC4c4ccccc4)cc3)c2cc1OC (centres unmarked) [Example 1060, N-{4-[(6,7-Dimethoxy-4-quinazolinyl)oxy]phenyl}-N′-[(2-phenylcyclopropyl)carbonyl]thiourea] | inhibition at 1 µM (c-kit; figure in parentheses in −( )): 30%
 | 52 | 16 |  | COc1cc2ncnc(Oc3ccc(NC(=O)OCCCOc4ccccc4OC)cc3)c2cc1OC [Example 160, 3-(2-Methoxyphenoxy)propyl N-{4-[(6,7-dimethoxy-4-quinazolinyl)oxy]phenyl}carbamate] | 
16 |  |  | 77 | COc1cc2nccc(Oc3ccc(NC(=O)OCCN4C(=O)c5ccccc5C4=O)c(C)c3C)c2cc1OC [Example 420, 2-(1,3-Dioxo-2,3-dihydro-1H-2-isoindolyl)ethyl N-{4-[(6,7-dimethoxy-4-quinolyl)oxy]-2,3-dimethylphenyl}carbamate] | 
 |  | > 100 |  | COc1cc2ncnc(Oc3ccc(NC(=O)OCCCSc4ccc(C(C)(C)C)cc4)c(Cl)c3)c2cc1OC [Example 76, 3-{[4-(Tert-butyl)phenyl]sulfanyl}propyl N-{2-chloro-4-[(6,7-dimethoxy-4-quinazolinyl)oxy]phenyl}carbamate] | inhibition at 1 µM (c-kit; figure in parentheses in −( )): 14%; inhibition at 0.1 µM (PDGF-Ra; [3]): 37%
 | 377 | < 10 |  | CCCCC(CC)OC(=O)Nc1ccc(Oc2ccnc3cc(OC)c(OC)cc23)c(C)c1C (centres unmarked) [Example 331, 1-Ethylpentyl N-{4-[(6,7-dimethoxy-4-quinolyl)oxy]-2,3-dimethylphenyl}carbamate] | 
> 100 |  |  | 320 | COc1cc2nccc(Oc3cc(C)c(NC(=S)NCCCN4CCOCC4)cc3C)c2cc1OC [Example 553, N-{4-[(6,7-Dimethoxy-4-quinolyl)oxy]-2,5-dimethylphenyl}-N′-[3-(1-morpholino)propyl]thiourea] | inhibition at 0.1 µM (PDGF-Ra; [2]): 40%
 | 585 | 74 |  | CCCCC(CCCC)OC(=O)Nc1ccc(Oc2ccnc3cc(OC)c(OC)cc23)c(C)c1C [Example 370, 1-Butylpentyl N-{4-[(6,7-dimethoxy-4-quinolyl)oxy]-2,3-dimethylphenyl}carbamate] | 
 | 165 | > 100 |  | COc1cc2nccc(Oc3cc(C)c(NC(=O)OCCN4CCOCC4)cc3C)c2cc1OC [Example 307, 2-Morpholinoethyl N-{4-[(6,7-dimethoxy-4-quinolyl)oxy]-2,5-dimethylphenyl}carbamate] | inhibition at 0.1 µM (PDGF-Ra; [3]): 49%
 | 342 | < 10 |  | COc1ccc(OC)c(COC(=O)Nc2ccc(Oc3ccnc4cc(OC)c(OC)cc34)cc2)c1 [Example 67, 2,5-Dimethoxybenzyl N-{4-[(6,7-dimethoxy-4-quinolyl)oxy]phenyl}carbamate] | 
12 |  |  | 75 | COc1cc2ncnc(Oc3ccc(N(C)C(=O)OCC4CCCCCC4)cc3)c2cc1OC [Example 484] | 
> 100 |  |  |  | COc1cc2nccc(Oc3ccc(NC(=S)NC(=O)c4cc(C)oc4C)c(C)c3)c2cc1OC [Example 698, N-{4-[(6,7-Dimethoxy-4-quinolyl)oxy]-2-methylphenyl}-N′-[(2,5-dimethyl-3-furyl)carbonyl]thiourea] | inhibition at 1 µM (c-kit; [1]): 29%; inhibition at 0.1 µM (PDGF-Ra; [2]): 34%
> 100 |  |  |  | COc1cc2nccc(Oc3ccc(NC(=O)NC4CCN(Cc5ccccc5)CC4)cc3Cl)c2cc1OC [Example 644, N-(1-Benzyl-4-piperidyl)-N′-{3-chloro-4-[(6,7-dimethoxy-4-quinolyl)oxy]phenyl}urea] | inhibition at 1 µM (c-kit; [1]): 14%; inhibition at 0.1 µM (PDGF-Ra; [2]): 17%
< 10 |  |  | 81 | C=C(C)COC(=O)Nc1ccc(Oc2ccnc3cc(OC)c(OC)cc23)cc1 [Example 404, 2-Methylallyl N-{4-[(6,7-dimethoxy-4-quinolyl)oxy]phenyl}carbamate] | 
< 10 |  |  | 81 | COc1cc2nccc(Oc3ccc(NC(=O)NCCN4CCOCC4)cc3)c2cc1OC [Example 628, N-{4-[(6,7-Dimethoxy-4-quinolyl)oxy]phenyl}-N′-(2-morpholinoethyl)urea] | 
 | 83 | 7 |  | CCCCCCOC(=O)Nc1cc(C)c(Oc2ccnc3cc(OC)c(OC)cc23)cc1C [Example 262, Hexyl N-{4-[(6,7-dimethoxy-4-quinolyl)oxy]-2,5-dimethylphenyl}carbamate] | 
26 |  |  |  | CCCCCC(=O)NC(=S)Nc1ccc(Oc2ncnc3cc(OC)c(OC)cc23)cc1 [Example 1189, N-{4-[(6,7-Dimethoxy-4-quinazolinyl)oxy]phenyl}-N′-hexanoylthiourea] | IC50 (c-kit; h-SCF stimulation): 73 nM
90 |  |  | 632 | CCN(CC)CCNC(=O)Nc1cc(C)c(Oc2ccnc3cc(OC)c(OC)cc23)cc1C [Example 623, N-[2-(Diethylamino)ethyl]-N′-{4-[(6,7-dimethoxy-4-quinolyl)oxy]-2,5-dimethylphenyl}urea] | 

SMILES | IC50 (PDGF-Ra) [nM] | IC50 (c-kit; h-SCF 50 ng/ml) [nM] | IC50 (PDGF-Ra; Pharmacological Test Example 1) [nM] | IC50 (c-kit; 50 ng/ml h-SCF) [nM] | further results
COc1cc2nccc(Oc3ccc(NC(=O)Oc4c(OC)cccc4OC)cc3)c2cc1OC [Example 280, 2,6-Dimethoxyphenyl N-{4-[(6,7-dimethoxy-4-quinolyl)oxy]phenyl}carbamate] |  | 370 | < 10 |  | 
